Results published in US20080280933A1, “BENZIMIDAZOLYL COMPOUNDS” (priority 2006, published 2008).
Like-named read-outs stand apart in the source and are kept apart here.

Biological target: T1, mGluR2 receptor (metabotropic glutamate receptor 2) (Homo sapiens, UniProt Q14416)
T1 construct: expressed in transfected cells
Assay: mGluR2 Potentiator Screen, FLIPR, EC10-EC20 glutamate challenge
Format: cell-based
Method: Procedure for mGluR2 Potentiator Screen NLB Methods EC10-EC20 Challenge Cell Culture and Plating:
Cells used for this screen are HEK cells stably transfected with the mGluR2 receptor (metabotropic glutamate receptor 2) and the Gα15 G protein. Clones were identified by functional activity (FLIPR). Cells are grown in growth media containing: DMEM High Glucose with Glutamine and Na Pyruvate (GIBCO), 10% (v/v) Heat inactivate FBS (GIBCO) G418 500 ug/ml (from 50 mg/ml stock) (GIBCO) and Blasticidin 3 ug/ml (from 5 mg/ml stock made in H2O) (Invitrogen).
2 days before the assay cell are trypsinized with 0.25% trysin/EDTA (GIBCO), spun down at 1000 rpm for 5 minutes, resuspended in growth media and plated on polystyrene 384 well black wall/clear bottom poly-D-lysine coated plates at a density of approximately 18,000 cells/well in a volume of 50 μL per well. One day before the assay the growth media is removed from the plates by flicking and replaced with media containing DMEM High Glucose without Glutamine and Na Pyruvate (GIBCO) and 10% (v/v) dialyzed FBS (GIBCO). The reason for the removal of glutamine the day before the assay is to minimize the amount of glutamate that will be present during the assay, as endogenous glutarnate released from the cells can reduce the fluorescent response and interfere with the FLIPR screen.
FLIPR Methods and Data Analysis:
On the day of the assay, the FLIPR assay is performed using the following methods:
The pH is adjusted to 7.4 with 1M NaOH. Prepare a 2 mM (approx.) stock solution of Fluo-4.am (Molecular Probes) dye in DMSO −22 μl DMSO per 50 ug vial (440 μL per 1 mg vial). Make a 1 mM (approx.) flou-4, PA working solution per vial by adding 22 μl of 20% pluronic acid (PA) (Molecular Probes) in DMSO to each 50 ug vial (440 μL per 1 mg vial). Prepare a 250 mM Probenecid (Sigma) stock solution by dissolving 0.71 g into 5 ml 1N NaOH and 5 ml assay buffer (for each liter of assay wash buffer). Make 4 uM (approx.) dye incubation media by adding 2.50 ug vials per 11 ml DMEM high glucose without glutamine (220 ml per 1 mg vial). Add 110 μL probenecid stock per 11 ml (2.5 mM final [concentration]). To the dye media add 3 units/ml of glutamic-pyruvic transaminase (GPT, Sigma) and 3 mM Na Pyruvate. The assay has worked with dye concentrations from 2 uM to 8 uM dye as well. To the assay buffer from drug preparation, add 1.83 mls DMSO and 400 μL. 15.8% P104 (from New Leads biology) per liter for final concentrations of 0.18% DMSO and 0.006% P104. To the assay buffer for cell washing, add probenecid in the same manner and concentration that was used for the dye media.
Remove growth media from cell plates by flicking. Add 50 μl/well dye solution. Incubate 1 hour at 37° C. and 5% CO2. Remove dye solution and wash 3 times with assay buffer+probenecid (100 μl probenecid stock per 10 ml buffer), leaving 30 μL/well assay buffer. Wait at least 10-15 minutes. Compounds and agonist challenge additions are performed with the FLIPR. The in addition is for test compounds, which are added as 15 μL of 4× [concentration] of potentiator. The second 2nd addition is 15 μL of 4× [concentration] of agonist or challenge. This achieves 1× concentration of all compounds only after 2nd addition. The 1st and 2nd additions are performed separately using the FLIPR, which give 2 different data files. Compounds are pretreated at least 30 minutes before agonist addition.
Results are analyzed by dividing the peak fluorescent value of the FLIPR response by the […] to achieve a ratio response. The ratios are then analyzed by curve fitting programs. Since potent compounds can give an inverted U dose response curve (due to effects on endogenous glutamate by the potentiators) points are deleted at concentrations higher than the concentration that gives the maximum effect. Maximum values for dose response curves (forced fitting) are derived from standards on the plate.
Compound Preparation and Glutamate Challenge: […]

T1 sequence (Q14416 19-872, species assumed): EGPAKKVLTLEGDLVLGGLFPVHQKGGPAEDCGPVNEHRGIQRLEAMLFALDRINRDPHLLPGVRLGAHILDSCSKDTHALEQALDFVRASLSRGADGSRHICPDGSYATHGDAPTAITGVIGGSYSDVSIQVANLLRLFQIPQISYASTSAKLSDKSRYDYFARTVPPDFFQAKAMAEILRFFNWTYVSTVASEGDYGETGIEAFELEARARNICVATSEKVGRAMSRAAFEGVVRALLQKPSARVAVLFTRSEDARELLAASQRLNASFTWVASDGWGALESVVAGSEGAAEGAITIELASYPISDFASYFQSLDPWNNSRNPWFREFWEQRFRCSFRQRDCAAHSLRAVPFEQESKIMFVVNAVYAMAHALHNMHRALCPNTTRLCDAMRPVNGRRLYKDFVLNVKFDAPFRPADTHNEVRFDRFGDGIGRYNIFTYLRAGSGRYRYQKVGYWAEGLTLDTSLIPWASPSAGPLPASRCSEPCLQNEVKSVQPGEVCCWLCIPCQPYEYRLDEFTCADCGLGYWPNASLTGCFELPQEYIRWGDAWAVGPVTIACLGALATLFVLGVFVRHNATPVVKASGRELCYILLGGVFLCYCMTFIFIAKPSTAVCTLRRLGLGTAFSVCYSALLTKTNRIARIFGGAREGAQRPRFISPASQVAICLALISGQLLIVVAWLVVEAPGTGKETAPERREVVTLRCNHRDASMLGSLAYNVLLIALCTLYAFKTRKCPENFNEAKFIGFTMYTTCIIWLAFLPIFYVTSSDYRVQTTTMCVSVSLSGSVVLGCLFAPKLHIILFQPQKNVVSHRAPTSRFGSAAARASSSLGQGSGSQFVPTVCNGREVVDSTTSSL

Structure (SMILES)	EC50 (read-out: EC50) [µM]	also measured
Cn1c(CN2CCC(c3ccccc3F)CC2)nc2cc(C(C)(C)O)ccc21 [Entry 298, 2-(2-((4-(2-fluorophenyl)piperidin-1-yl)methyl)-1-methyl-1H-benzo[d]imidazol-5-yl)propan-2-ol]	> 7.34	
Cn1c(CN2CCC(c3ccccc3F)CC2)nc2c(F)cccc21 [Entry 325, 4-Fluoro-2-((4-(2-Fluorophenyl)piperidin-1-yl)methyl)-1-methyl-1H-benzo[d]imidazole]	0.0338	
COc1cc(C(F)(F)F)ccc1C1CCN(Cc2nc3ccccc3n2C)CC1 [Entry 354]	< 0.0193	EC50 (listed as 1, read-out: EC50): > 6.17 µM
Cn1c(CN2CCC(c3ccccc3F)CC2)nc2cc(C(N)=O)ccc21 [Entry 363, 2-((4-(2-Fluorophenyl)piperidin-1-yl)methyl)-1-methyl-1H-benzo[d]imidazol-5-carboxamide]	2.02	
CC(C)C(=O)N1CC2(CCN(Cc3nc4ccccc4n3C)CC2)c2cc(F)ccc21 [compound 17]	3.31	
Cc1nnsc1C(=O)N1CC2(CCN(Cc3nc4ccccc4n3C)CC2)c2cc(F)ccc21 [compound 18]	2.45	
CC(=O)N1CC2(CCN(Cc3nc4ccccc4n3C)CC2)c2cc(F)ccc21 [compound 19]	4.79	
CCC(=O)N1CC2(CCN(Cc3nc4ccccc4n3C)CC2)c2cc(F)ccc21 [compound 20]	3.39	
Cc1ccc2c(c1)C1(CCN(Cc3nc4ccccc4n3C)CC1)CN2C(=O)c1snnc1C [compound 21]	1.16	
CC(=O)N1CC2(CCN(Cc3nc4ccccc4n3C)CC2)c2cc(C)ccc21 [compound 22]	3.83	
CCC(=O)N1CC2(CCN(Cc3nc4ccccc4n3C)CC2)c2cc(C)ccc21 [compound 23]	0.926	
Cc1ccc2c(c1)C1(CCN(Cc3nc4ccccc4n3C)CC1)CN2C(=O)C(C)C [compound 24]	1.62	
Cc1nnsc1C(=O)N1CC2(CCN(Cc3nc4ccccc4n3C)CC2)c2cc(Cl)ccc21 [compound 25]	1.35	
CC(=O)N1CC2(CCN(Cc3nc4ccccc4n3C)CC2)c2cc(Cl)ccc21 [compound 26]	2.45	
CCC(=O)N1CC2(CCN(Cc3nc4ccccc4n3C)CC2)c2cc(Cl)ccc21 [compound 27]	1.06	
Cc1nnsc1C(=O)N1CC2(CCN(Cc3nc4ccccc4n3C)CC2)c2ccccc21 [compound 28]	2.11	
Cc1ccc2c(c1)C1(CCN(Cc3nc4ccccc4n3C)CC1)CN2C(=O)c1ccoc1 [compound 29]	2.43	
COC(=O)CCCCC(=O)N1CC2(CCN(Cc3nc4ccccc4n3C)CC2)c2cc(C)ccc21 [compound 30]	4.89	
Cc1ccc2c(c1)C1(CCN(Cc3nc4ccccc4n3C)CC1)CN2C(=O)c1c(C)noc1C [compound 31]	2.04	

Structure (SMILES)	EC50 (read-out: EC50) [µM]	also measured
COC(=O)CCCC(=O)N1CC2(CCN(Cc3nc4ccccc4n3C)CC2)c2cc(C)ccc21 [compound 32]	1.85	
CCOC(=O)CCC(=O)N1CC2(CCN(Cc3nc4ccccc4n3C)CC2)c2cc(C)ccc21 [compound 33]	1.35	
COC(=O)CCC(=O)N1CC2(CCN(Cc3nc4ccccc4n3C)CC2)c2cc(C)ccc21 [compound 34]	3.15	
Cc1ccc2c(c1)C1(CCN(Cc3nc4ccccc4n3C)CC1)CN2C(=O)c1cccnc1 [compound 35]	3.61	
Cc1ccc2c(c1)C1(CCN(Cc3nc4ccccc4n3C)CC1)CN2C(=O)C1CC1 [compound 36]	2.33	
Cc1ccc2c(c1)C1(CCN(Cc3nc4ccccc4n3C)CC1)CN2C(=O)c1ccco1 [compound 37]	1.82	
CCCC(=O)N1CC2(CCN(Cc3nc4ccccc4n3C)CC2)c2cc(C)ccc21 [compound 38]	0.388	
Cc1noc(C)c1C(=O)N1CC2(CCN(Cc3nc4ccccc4n3C)CC2)c2cc(Cl)ccc21 [compound 39]	2.83	
CCOC(=O)CCC(=O)N1CC2(CCN(Cc3nc4ccccc4n3C)CC2)c2cc(Cl)ccc21 [compound 41]	1.63	
COC(=O)CCC(=O)N1CC2(CCN(Cc3nc4ccccc4n3C)CC2)c2cc(Cl)ccc21 [compound 42]	3.23	
COCC(=O)N1CC2(CCN(Cc3nc4ccccc4n3C)CC2)c2cc(Cl)ccc21 [compound 44]	> 5.1	
Cn1c(CN2CCC3(CC2)CN(C(=O)C2CC2)c2ccc(Cl)cc23)nc2ccccc21 [compound 45]	1.12	
Cn1c(CN2CCC3(CC2)CN(C(=O)c2ccco2)c2ccc(Cl)cc23)nc2ccccc21 [compound 46]	> 4.86	
COc1ccccc1C1CCN(Cc2nc3ccccc3n2C)CC1 [compound 47]	0.0771	
Cn1c(CN2CCC3(CC2)CN(C(=O)c2ccc4nccnc4c2)c2ccccc23)nc2ccccc21 [compound 48]	> 6.63	
Cn1c(CN2CCC3(CC2)CN(C(=O)c2ccsc2)c2ccccc23)nc2ccccc21 [compound 49]	1.2	
Cn1c(CN2CCC3(CC2)CN(C(=O)c2ccoc2)c2ccccc23)nc2ccccc21 [compound 50]	4.93	
COC(=O)CCCCC(=O)N1CC2(CCN(Cc3nc4ccccc4n3C)CC2)c2ccccc21 [compound 51]	7.13	
Cn1c(CN2CCC3(CC2)CN(C(=O)C2COc4ccccc4O2)c2ccccc23)nc2ccccc21 (stereo not drawn) [compound 52]	1.39	

Structure (SMILES)	EC50 (read-out: EC50) [µM]	also measured
Cc1cc(C(=O)N2CC3(CCN(Cc4nc5ccccc5n4C)CC3)c3ccccc32)n(C)n1 [compound 53]	> 6.29	
Cc1noc(C)c1C(=O)N1CC2(CCN(Cc3nc4ccccc4n3C)CC2)c2ccccc21 [compound 54]	> 5.56	
Cn1c(CN2CCC3(CC2)CN(C(=O)c2cccc(C#N)c2)c2ccccc23)nc2ccccc21 [compound 55]	3.01	
Cn1c(CN2CCC3(CC2)CN(C(=O)c2ccc(C#N)cc2)c2ccccc23)nc2ccccc21 [compound 56]	1.75	
Cn1c(CN2CCC3(CC2)CN(C(=O)COc2ccccc2)c2ccccc23)nc2ccccc21 [compound 57]	0.508	
Cn1c(CN2CCC3(CC2)CN(C(=O)COCc2ccccc2)c2ccccc23)nc2ccccc21 [compound 58]	0.589	
Cn1c(CN2CCC3(CC2)CN(C(=O)c2cccs2)c2ccccc23)nc2ccccc21 [compound 59]	3.11	
Cn1c(CN2CCC3(CC2)CN(C(=O)C2CCC2)c2ccccc23)nc2ccccc21 [compound 60]	2.22	
Cn1c(CN2CCC3(CC2)CN(C(=O)C2CC2)c2ccccc23)nc2ccccc21 [compound 61]	4.01	
CCCCC(=O)N1CC2(CCN(Cc3nc4ccccc4n3C)CC2)c2ccccc21 [compound 62]	0.261	
Cn1c(CN2CCC3(CC2)CN(C(=O)c2ccco2)c2ccccc23)nc2ccccc21 [compound 63]	4.51	
CCCC(=O)N1CC2(CCN(Cc3nc4ccccc4n3C)CC2)c2ccccc21 [compound 64]	1.41	
COc1cccc(C2CCN(Cc3nc4ccccc4n3C)CC2)c1 [compound 65]	0.241	
CC(=O)C1(c2ccccc2)CCN(Cc2nc3ccccc3n2C)CC1 [compound 66]		EC50 (EC50 (uM)): > 5.23 µM
Cn1c(CN2CC[C@@H]3c4ccccc4CC[C@@H]3C2)nc2ccccc21 [compound 67]	0.693	
Cn1c(CN2CCC(O)(c3cc(Br)cc(Br)c3)CC2)nc2ccccc21 [compound 68]	1.24	
COc1cccc2c1CCCC21CCN(Cc2nc3ccccc3n2C)CC1 [compound 69]	> 6.97	
Cn1c(CN2CCC(O)(c3ccc(Cl)c(C(F)(F)F)c3)CC2)nc2ccccc21 [compound 71]	4.35	
